Consider five molecules from patent US6127519A, “Calcitonin derivatives” (Tsumura & Co., priority 1990, dated 2000).

For this assay, the system named is calcium concentration in the serum. The assay can be described thus: Test 1: reduction of calcium level in serum after tail vein administration to rats. In kind it is in vivo, rats of the Wistar strain. Conditions: 1 ml/kg tail vein, female Wistar rats. The procedure, abridged:
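Female Wistar rats, six weeks old, were assigned in groups of 4 and given the test peptides through the tail vein at 1 ml/kg. The peptides were dissolved in 1% aqueous sodium acetate (pH 4,0) containing 0.1% BSA. Blood (0.3 ml) was drawn from the neck vein immediately before dosing and at set times afterward. Serum was separated by centrifuging at 3500 rpm for 20 minutes. Calcium was measured on a TBA-380 analyzer with a Wako o-cpc kit, and the percentage reduction in serum calcium was calculated.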

Where [1] appears, read: concentration 83 ng/ml, 0 hour (just before administration).
Where [2] appears, read: concentration 83 ng/ml, 2 hours.
The mark [3] stands for this setting: concentration 83 ng/ml, 4 hours.
[4] abbreviates: concentration 83 ng/ml, 6 hours.
The mark [5] stands for this setting: concentration 830 ng/ml, 0 hour (just before administration).
[6] abbreviates: concentration 830 ng/ml, 1 hour.
Setting [7] is: concentration 830 ng/ml, 2 hours.
The mark [8] stands for this setting: concentration 830 ng/ml, 4 hours.
The mark [9] stands for this setting: concentration 830 ng/ml, 6 hours.

Bridge positions count the residues as written; N and C are the ends. Ends that are not written are not given here. Peptide text beside a SMILES is read from it.

On to `CC[C@H](C)[C@H](NC(=O)[C@H](C)NC(=O)[C@@H](NC(=O)[C@H](CCC(N)=O)NC(=O)[C@@H]1CCCN1C(=O)[C@H](Cc1ccc(O)cc1)NC(=O)[C@@H](NC(=O)[C@H](CCC(N)=O)NC(=O)[C@H](CC(C)C)NC(=O)[C@H](CCCCN)NC(=O)[C@H](Cc1c[nH]cn1)NC(=O)[C@H](CC(C)C)NC(=O)[C@H](CCC(=O)O)NC(=O)[C@H](CCC(N)=O)NC(=O)[C@H](CO)NC(=O)[C@H](CC(C)C)NC(=O)[C@H](CCCCN)NC(=O)CNC(=O)[C@H](CC(C)C)NC(=O)[C@H](C)NC(=O)[C@@H]1CSSC[C@H](N)C(=O)NCC(=O)N[C@@H](CC(N)=O)C(=O)N[C@@H](CC(C)C)C(=O)N[C@@H](CO)C(=O)N[C@@H]([C@@H](C)O)C(=O)N1)[C@@H](C)O)[C@@H](C)O)C(=O)NCC(=O)N[C@H](C(=O)NCC(=O)N[C@@H](C)C(=O)N1CCC[C@H]1C(N)=O)C(C)C` [Peptide No. 10] (H-CGNLSTCALGKLSQELHKLQTYPQTAIGVGAP-NH2; disulfide 1-7), for which the “Serum calcium level as percent of pre-dose baseline” value (“Serum calcium level as percent” for short) is recorded as 100.0% under setting [1]; 68.7% (concentration 83 ng/ml, 1 hour); 77.9% under setting [2]; 90.6% under setting [3]; 81.6% under setting [4]; 100.0% under setting [5]. Also, the “Serum calcium level as percent” value under setting [6] is recorded as 70.2%, the “Serum calcium level as percent” value under setting [7] came to 65.4%, the “Serum calcium level as percent” value under setting [8] is on record as 76.1% and the “Serum calcium level as percent” value under setting [9] stood at 84.2%.

Regarding `CC[C@H](C)[C@H](NC(=O)[C@H](C)NC(=O)[C@@H](NC(=O)[C@H](CCC(N)=O)NC(=O)[C@@H]1CCCN1C(=O)[C@H](Cc1ccc(O)cc1)NC(=O)[C@@H](NC(=O)[C@H](CCC(N)=O)NC(=O)[C@H](CC(C)C)NC(=O)[C@H](CCCCN)NC(=O)[C@H](Cc1c[nH]cn1)NC(=O)[C@H](CC(C)C)NC(=O)[C@H](CCC(=O)O)NC(=O)[C@H](CCC(N)=O)NC(=O)[C@H](CO)NC(=O)[C@H](CC(C)C)NC(=O)[C@H](CCCCN)NC(=O)CNC(=O)[C@H](CC(C)C)NC(=O)[C@H](CC(C)C)NC(=O)[C@@H]1CCCCNC(=O)C[C@H](NC(C)=O)C(=O)N[C@@H](CC(N)=O)C(=O)N[C@@H](CC(C)C)C(=O)N[C@@H](CO)C(=O)N[C@@H]([C@@H](C)O)C(=O)N1)[C@@H](C)O)[C@@H](C)O)C(=O)NCC(=O)N[C@H](C(=O)NCC(=O)N[C@@H](C)C(=O)N1CCC[C@H]1C(N)=O)C(C)C` [Peptide No. 25] (Ac-DNLSTKLLGKLSQELHKLQTYPQTAIGVGAP-NH2; lactam 1-6), the “Serum calcium level as percent” value stood at 100.0% under setting [1]; 76.9% (concentration 83 ng/ml, 1 hour); 67.6% under setting [2]; 66.7% under setting [3]; 71.3% under setting [4]; 100.0% under setting [5]. Also, the “Serum calcium level as percent” value is, setting by setting: under setting [6], 73.4%; under setting [7], 64.3%; under setting [8], 51.8%; under setting [9], 44.3%.

For “Peptide No. 21: novel calcitonin-derivative peptide, aminosuberic acid (carba) ring, Met8, SEQ ID NO:21 (XGNLSTAMLGKLSQELHKLQTYPQTAIGVGAP; aminosuberic acid carba ring)”, the “Serum calcium level as percent” value runs as follows: under setting [1], 100.0%; (concentration 83 ng/ml, 1 hour) 78.4%; under setting [2], 71.7%; under setting [3], 62.6%; under setting [4], 67.1%; under setting [5], 100.0%. Further, the “Serum calcium level as percent” value reads like this: under setting [6], 78.4%; under setting [7], 71.7%; under setting [8], 62.6%; under setting [9], 67.1%.

Turning to “AGNLSTAMLGKLSQELHKLQTYPQTAIGVGAP-NH2 [Peptide No. 14]”, the “Serum calcium level as percent” value amounted to 100.0% (concentration 166 ng/ml, 0 hour (just before administration)); 76.0% (concentration 166 ng/ml, 1 hour); 70.0% (concentration 166 ng/ml, 2 hours); 74.3% (concentration 166 ng/ml, 4 hours); 73.7% (concentration 166 ng/ml, 6 hours).

For `CC[C@H](C)[C@H](NC(=O)[C@H](C)NC(=O)[C@@H](NC(=O)[C@H](CCC(N)=O)NC(=O)[C@@H]1CCCN1C(=O)[C@H](Cc1ccc(O)cc1)NC(=O)[C@@H](NC(=O)[C@H](CCC(N)=O)NC(=O)[C@H](CC(C)C)NC(=O)[C@H](CCCCN)NC(=O)[C@H](Cc1c[nH]cn1)NC(=O)[C@H](CC(C)C)NC(=O)[C@H](CCC(=O)O)NC(=O)[C@H](CCC(N)=O)NC(=O)[C@H](CO)NC(=O)[C@H](CC(C)C)NC(=O)[C@H](CCCCN)NC(=O)CNC(=O)[C@H](CC(C)C)NC(=O)[C@H](CCSC)NC(=O)[C@@H]1CCCCNC(=O)C[C@H](N)C(=O)N[C@@H](CC(N)=O)C(=O)N[C@@H](CC(C)C)C(=O)N[C@@H](CO)C(=O)N[C@@H]([C@@H](C)O)C(=O)N1)[C@@H](C)O)[C@@H](C)O)C(=O)NCC(=O)N[C@H](C(=O)NCC(=O)N[C@@H](C)C(=O)N1CCC[C@H]1C(N)=O)C(C)C` [Peptide No. 23] (H-DNLSTKMLGKLSQELHKLQTYPQTAIGVGAP-NH2; lactam 1-6), the “Serum calcium level as percent” value under setting [1] was found to be 100.0%; the “Serum calcium level as percent” value (concentration 83 ng/ml, 1 hour) amounted to 73.6%; the “Serum calcium level as percent” value under setting [2] is 72.2%; the “Serum calcium level as percent” value under setting [3] was determined as 83.3%; the “Serum calcium level as percent” value under setting [4] amounted to 82.4%; the “Serum calcium level as percent” value under setting [5] came to 100.0%. Further, the “Serum calcium level as percent” value is listed as 68.5% under setting [6], 61.6% under setting [7], 56.9% under setting [8] and 71.1% under setting [9].
